Test results from ChEMBL document CHEMBL1143999, “A new generation of adenosine receptor antagonists: from di- to trisubstituted aminopyrimidines” (Bioorg Med Chem, 2008).

Tests used:
Adenosine receptor A2a [1] = target: T1, Adenosine receptor A2a (Homo sapiens, UniProt P29274); assay: Displacement of [3H]ZM-241385 from human adenosine A2A receptor expressed in HEK293 cells at 1 uM; format: cell-based
[2] = target: T2, Adenosine receptor A1 (Homo sapiens) (UniProt P30542); assay: Displacement of [3H]DPCPX from human adenosine A1 receptor expressed in CHO cells at 1 uM; format: cell-based
T2 sequence (whole entry): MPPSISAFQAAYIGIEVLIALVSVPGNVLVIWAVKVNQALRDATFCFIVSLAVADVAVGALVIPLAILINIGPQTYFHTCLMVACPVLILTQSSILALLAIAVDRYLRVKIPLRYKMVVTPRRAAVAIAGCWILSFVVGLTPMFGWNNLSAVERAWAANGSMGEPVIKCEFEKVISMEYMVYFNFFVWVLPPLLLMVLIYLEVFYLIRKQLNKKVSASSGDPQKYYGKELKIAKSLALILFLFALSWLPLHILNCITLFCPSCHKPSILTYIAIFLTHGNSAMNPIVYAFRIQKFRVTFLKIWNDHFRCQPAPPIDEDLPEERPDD

Adenosine receptor A1 [3] = target: T3, Adenosine receptor A1 (Homo sapiens, UniProt P30542); assay: biochemical
T3 sequence (P30542 whole entry): T2 sequence (whole entry)

Adenosine receptor A3 = target: T4, Adenosine receptor A3 (Homo sapiens, UniProt P0DMS8); assay: biochemical
T4 sequence (P0DMS8 whole entry): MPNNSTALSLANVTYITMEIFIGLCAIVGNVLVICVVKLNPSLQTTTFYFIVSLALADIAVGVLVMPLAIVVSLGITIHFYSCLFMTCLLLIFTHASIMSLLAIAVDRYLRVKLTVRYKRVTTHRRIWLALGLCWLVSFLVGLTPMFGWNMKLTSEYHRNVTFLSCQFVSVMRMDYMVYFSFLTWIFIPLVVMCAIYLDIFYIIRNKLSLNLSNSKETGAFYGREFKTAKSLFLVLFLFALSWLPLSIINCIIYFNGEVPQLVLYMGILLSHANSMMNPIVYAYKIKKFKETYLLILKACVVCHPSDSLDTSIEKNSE
Description: Displacement of [3H]AB-MECA from human adenosine A3 receptor expressed in HEK293 cells

Adenosine receptor A2a [4] = target: T1, Adenosine receptor A2a; assay: biochemical
Adenosine receptor A1 [5] = target: T3, Adenosine receptor A1; assay: (§1) Activity at human adenosine A1 receptor expressed in CHO cells assessed as inhibition of CPA-induced decrease in forskolin-stimulated cAMP production by TR-FRET assay; format: functional, cell-based
[6] = target: T2, Adenosine receptor A1 (Homo sapiens); assay: as §1; format: functional, cell-based

T1 sequence (P29274 whole entry): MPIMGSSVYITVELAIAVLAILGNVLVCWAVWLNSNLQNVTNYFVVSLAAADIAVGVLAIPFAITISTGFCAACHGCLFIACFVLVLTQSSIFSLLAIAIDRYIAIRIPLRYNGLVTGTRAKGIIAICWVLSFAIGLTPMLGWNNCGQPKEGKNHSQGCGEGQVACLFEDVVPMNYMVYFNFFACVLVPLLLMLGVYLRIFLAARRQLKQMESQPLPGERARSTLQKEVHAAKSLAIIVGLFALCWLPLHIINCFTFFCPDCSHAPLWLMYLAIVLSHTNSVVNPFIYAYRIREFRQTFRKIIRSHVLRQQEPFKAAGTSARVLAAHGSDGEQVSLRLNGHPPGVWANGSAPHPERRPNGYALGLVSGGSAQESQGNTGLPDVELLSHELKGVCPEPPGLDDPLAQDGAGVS

Row | Ki (Adenosine receptor A1 [3]) [nM] | Ki (Adenosine receptor A2a [4]) [nM] | Compound | further results
1 | 17.6 | – | CCC(CC)C(=O)Nc1nc(-c2ccccc2)cc(-c2ccc3c(c2)OCO3)n1 | Activity (Adenosine receptor A2a [1]): 33%
2 | 6.4 | 54.5 | CCC(CC)C(=O)Nc1nc(-c2ccccc2)c(C#N)c(-c2ccccc2)n1 | –
3 | 2.8 | 27.2 | N#Cc1c(-c2ccccc2)nc(NC(=O)C2CCCC2)nc1-c1ccc2c(c1)OCO2 | –
4 | 27.9 | 574 | CCC(CC)C(=O)Nc1cc(-c2ccc3c(c2)OCO3)nc(-c2ccccc2)n1 | Ki (Adenosine receptor A3): 634 nM
5 | 12.6 | 69.5 | CCCC(=O)Nc1nc(-c2ccccc2)nc(-c2ccccc2)c1C#N | –
6 | 17.3 | 339 | O=C(Nc1cc(-c2ccc3c(c2)OCO3)nc(-c2ccccc2)n1)C1CCCC1 | Ki (Adenosine receptor A3): 186 nM
7 | 115 | 158 | Cc1ccc(C(=O)Nc2nc(-c3ccccc3)c(C#N)c(-c3ccccc3)n2)cc1 | –
8 | 8.3 | 21.3 | CCCC(=O)Nc1nc(-c2ccccc2)c(C#N)c(-c2ccc3c(c2)OCO3)n1 | –
9 | 27.9 | 49.8 | N#Cc1c(NC(=O)C2CC2)nc(-c2ccccc2)nc1-c1ccccc1 | –
10 | 13.4 | – | CCCC(=O)Nc1nc(-c2ccccc2)nc(-c2ccc3c(c2)OCO3)c1C#N | Activity (Adenosine receptor A2a [1]): 23%
11 | 5.3 | 280 | N#Cc1c(NC(=O)C2CCCC2)nc(-c2ccccc2)nc1-c1ccccc1 | –
12 | 4.9 | 44.3 | N#Cc1c(N)nc(-c2ccccc2)nc1-c1ccc2c(c1)OCO2 | –
13 | 2.9 | 48.2 | CCCC(=O)Nc1nc(-c2ccccc2)c(C#N)c(-c2ccccc2)n1 | –

The remaining lines, values behind:

Row | Compound | Ki (Adenosine receptor A1 [3]) [nM] | Ki (Adenosine receptor A2a [4]) [nM] | further results
14 | N#Cc1c(-c2ccccc2)nc(NC(=O)c2ccco2)nc1-c1ccccc1 | – | – | Activity (Adenosine receptor A2a [1]): 42%; Activity [2]: 26%
15 | CCC(CC)C(=O)Nc1nc(-c2ccccc2)nc(-c2ccc3c(c2)OCO3)c1C#N | 18.4 | – | Activity (Adenosine receptor A2a [1]): 0%
16 | CCCC(=O)Nc1cc(-c2ccc3c(c2)OCO3)nc(-c2ccccc2)n1 | 6.8 | 222 | Ki (Adenosine receptor A3): 53.9 nM
17 | N#Cc1c(-c2ccccc2)nc(NC(=O)c2ccc(Cl)c(Cl)c2)nc1-c1ccccc1 | – | – | Activity (Adenosine receptor A2a [1]): 35%; Activity [2]: 58%
18 | CCCC(=O)Nc1nc(-c2ccccc2)cc(-c2ccc3c(c2)OCO3)n1 | 43 | – | Activity (Adenosine receptor A2a [1]): 8%
19 | N#Cc1c(N)nc(-c2ccccc2)nc1-c1ccccc1 | 10.8 | 19 | –
20 | Nc1nc(-c2ccccc2)cc(-c2ccc3c(c2)OCO3)n1 | – | 381 | –
21 | N#Cc1c(-c2ccccc2)nc(NC(=O)c2ccc(Cl)cc2)nc1-c1ccccc1 | 92.3 | 32.9 | –
22 | O=C(Nc1cc(-c2ccc3c(c2)OCO3)nc(-c2ccccc2)n1)C1CC1 | 13 | 69.2 | Ki (Adenosine receptor A3): 30.7 nM
23 | N#Cc1c(-c2ccccc2)nc(NC(=O)c2ccccc2)nc1-c1ccccc1 | – | – | Activity (Adenosine receptor A2a [1]): 48%; Activity [2]: 38%
24 | COc1ccc(C(=O)Nc2nc(-c3ccccc3)c(C#N)c(-c3ccccc3)n2)cc1 | 102 | 300 | –
25 | N#Cc1c(NC(=O)C2CCCC2)nc(-c2ccccc2)nc1-c1ccc2c(c1)OCO2 | – | – | IC50 (Adenosine receptor A1 [5]): 1400 nM; Kb [6]: 28 nM
26 | N#Cc1c(-c2ccccc2)nc(NC(=O)C2CC2)nc1-c1ccccc1 | 9.4 | 45.5 | –
27 | O=C(Nc1nc(-c2ccccc2)cc(-c2ccc3c(c2)OCO3)n1)C1CCCC1 | 8.1 | – | Activity (Adenosine receptor A2a [1]): 26%
28 | Nc1nc(-c2ccccc2)cc(-c2ccccc2)n1 | 17.7 | – | –
29 | CC(C)C(=O)Nc1nc(-c2ccccc2)c(C#N)c(-c2ccccc2)n1 | 2.9 | 35.3 | –
30 | N#Cc1c(-c2ccccc2)nc(N)nc1-c1ccc2c(c1)OCO2 | – | 5.2 | –
31 | N#Cc1c(-c2ccccc2)nc(NC(=O)C2CCCC2)nc1-c1ccccc1 | 1.2 | 159 | IC50 (Adenosine receptor A1 [5]): 150 nM; Kb [6]: 3 nM
32 | N#Cc1c(-c2ccccc2)nc(N)nc1-c1ccccc1 | – | 22.7 | –
33 | OC[C@H]1O[C@@H](n2cnc3c(NC4CCCC4)ncnc32)[C@H](O)[C@@H]1O [N6-CYCLOPENTYLADENOSINE] | – | 1650 | –
